Laboratory results published in ChEMBL document CHEMBL4665624, “Synthesis of 5-(4-(1H-phenanthro[9,10-d]imidazol-2-yl)benzylidene)thiazolidine-2,4-dione as promising DNA and serum albumin-binding agents and evaluation of antitumor activity” (Eur J Med Chem, 2019).
Active and inactive are the calls of the source. No cut-off for these calls is given here.

Experiments:
[1] = tested on: SK-MEL-28; assay: Antitumor activity against human SK-MEL-28 cells assessed as cell growth inhibition at 10 uM incubated for 48 hrs by sulforhodamine B assay; assay type: functional; details: read-out: GI
[2] = molecular target: T1, Albumin (Bos taurus, UniProt P02769); assay: Binding affinity to bovine serum albumin assessed as spontaneous interaction by measuring change in gibbs free energy at 298K by thermodynamic based analysis; assay type: ADME, cell-free; details: cattle
T1 sequence (P02769 whole entry): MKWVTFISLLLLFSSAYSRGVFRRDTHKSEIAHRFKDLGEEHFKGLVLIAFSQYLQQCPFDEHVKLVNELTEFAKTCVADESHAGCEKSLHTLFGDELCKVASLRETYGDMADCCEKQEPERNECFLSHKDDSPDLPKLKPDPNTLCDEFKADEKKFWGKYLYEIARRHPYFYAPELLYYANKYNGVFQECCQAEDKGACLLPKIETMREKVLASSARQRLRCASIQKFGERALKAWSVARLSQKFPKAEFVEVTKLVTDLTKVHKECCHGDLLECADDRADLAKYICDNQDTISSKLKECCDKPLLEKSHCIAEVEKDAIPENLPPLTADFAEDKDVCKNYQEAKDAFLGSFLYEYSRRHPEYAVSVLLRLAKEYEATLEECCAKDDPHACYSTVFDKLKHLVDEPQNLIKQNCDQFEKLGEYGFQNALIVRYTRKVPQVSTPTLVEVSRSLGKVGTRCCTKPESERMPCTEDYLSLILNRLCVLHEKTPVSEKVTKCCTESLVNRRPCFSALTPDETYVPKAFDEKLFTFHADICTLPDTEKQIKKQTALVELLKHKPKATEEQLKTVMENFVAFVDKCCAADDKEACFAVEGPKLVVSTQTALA

[3] = tested on: Calf thymus DNA; assay: Binding affinity to calf thymus DNA assessed as increase in fluorescence emission intensity at 468 nm at 20 uM by fluorescence emission spectroscopic analysis; assay type: nucleic-acid assay; details: Bos taurus
[4] = tested on: U-251; assay: Antitumor activity against human U251 cells assessed as cell growth inhibition at 10 uM incubated for 48 hrs by sulforhodamine B assay; assay type: functional; details: read-out: GI
[5] = molecular target: T1, Albumin; assay: Binding affinity to bovine serum albumin assessed as Stern-Volmer quenching constant at 298K by fluorescence emission spectrum analysis; assay type: ADME, cell-free; details: cattle
[6] = tested on: M14; assay: Antitumor activity against human M14 cells assessed as cell growth inhibition at 10 uM incubated for 48 hrs by sulforhodamine B assay; assay type: functional; details: read-out: GI
[7] = tested on: HT-29; assay: Antitumor activity against human HT-29 cells assessed as cell growth inhibition at 10 uM incubated for 48 hrs by sulforhodamine B assay; assay type: functional; details: read-out: GI
[8] = tested on: DNA; assay: Binding affinity to human DNA in blood assessed as DNA intercalation by measuring increase in fluorescence emission intensity at 498 nm at 20 uM by fluorescence emission spectral analysis; assay type: tissue-based
[9] = molecular target: T1, Albumin; assay: Binding affinity to bovine serum albumin assessed as quenching constant at 308K by fluorescence emission spectrum analysis; assay type: ADME, cell-free; details: cattle
[10] = tested on: A549; assay: Cytotoxicity against human A549/ATCC assessed as reduction in cell viability after 48 hrs by MTT assay; assay type: functional, cell-based; details: A549, 48 h
[11] = tested on: SK-OV-3; assay: Antitumor activity against human SK-OV-3 cells assessed as cell growth inhibition at 10 uM incubated for 48 hrs by sulforhodamine B assay; assay type: functional; details: read-out: GI
[12] = tested on: MCF7; assay: Antitumor activity against human MCF7 cells assessed as cell growth inhibition at 10 uM incubated for 48 hrs by sulforhodamine B assay; assay type: functional; details: read-out: GI
[13] = molecular target: T1, Albumin; assay: Binding affinity to bovine serum albumin assessed as quenching constant at 298K by fluorescence emission spectrum analysis; assay type: ADME, cell-free; details: cattle
[14] = tested on: Calf thymus DNA; assay: Binding affinity to calf thymus DNA assessed as DNA intercalation by measuring increase in melting temperature of DNA at 10 uM by thermal denaturation based spectrophotometric analysis; assay type: nucleic-acid assay; details: Bos taurus
[15] = tested on: Calf thymus DNA; assay: Binding affinity to calf thymus DNA assessed as binding constant by UV-Vis absorption spectrophotometric method based Benesi-Hildebrand equation analysis; assay type: nucleic-acid assay; details: Bos taurus
[16] = tested on: SN12C; assay: Antitumor activity against human SN12C cells assessed as cell growth inhibition at 10 uM incubated for 48 hrs by sulforhodamine B assay; assay type: functional; details: read-out: GI
[17] = tested on: UO-31; assay: Antitumor activity against human UO-31 cells assessed as cell growth inhibition at 10 uM incubated for 48 hrs by sulforhodamine B assay; assay type: functional; details: read-out: GI
[18] = molecular target: DNA; assay: Binding affinity to human DNA in blood assessed as DNA intercalation by measuring binding constant by UV-Vis spectral titration analysis; assay type: tissue-based
[19] = tested on: NCI-H226; assay: Antitumor activity against human NCI-H226 assessed as cell growth inhibition at 10 uM incubated for 48 hrs by sulforhodamine B assay; assay type: functional; details: read-out: GI
[20] = tested on: MDA-MB-468; assay: Antitumor activity against human MDA-MB-468 cells assessed as cell growth inhibition at 10 uM incubated for 48 hrs by sulforhodamine B assay; assay type: functional; details: read-out: GI
[21] = tested on: NCI-H23; assay: Antitumor activity against human NCI-H23 cells assessed as cell growth inhibition at 10 uM incubated for 48 hrs by sulforhodamine B assay; assay type: functional; details: read-out: GI
[22] = tested on: CCRF-CEM; assay: Antitumor activity against human CCRF-CEM cells assessed as cell growth inhibition at 10 uM incubated for 48 hrs by sulforhodamine B assay; assay type: functional; details: read-out: GI
[23] = tested on: UACC-62; assay: Antitumor activity against human UACC-62 cells assessed as cell growth inhibition at 10 uM incubated for 48 hrs by sulforhodamine B assay; assay type: functional; details: read-out: GI
[24] = tested on: A549; assay: Cytotoxicity against human A549/ATCC assessed as reduction in cell viability at 0.01 uM after 48 hrs by MTT assay; assay type: functional
[25] = tested on: A498; assay: Antitumor activity against human A498 cells assessed as cell growth inhibition at 10 uM incubated for 48 hrs by sulforhodamine B assay; assay type: functional; details: read-out: GI
[26] = tested on: MDA-MB-231; assay: Antitumor activity against human MDA-MB-231/ATCC cells assessed as cell growth inhibition at 10 uM incubated for 48 hrs by sulforhodamine B assay; assay type: functional; details: read-out: GI
[27] = tested on: EKVX; assay: Antitumor activity against human EKVX cells assessed as cell growth inhibition at 10 uM incubated for 48 hrs by sulforhodamine B assay; assay type: functional; details: read-out: GI
[28] = molecular target: T1, Albumin; assay: Binding affinity to bovine serum albumin assessed as binding constant at 298K by fluorescence emission spectrum analysis; assay type: ADME, cell-free; details: cattle
[29] = tested on: DNA; assay: Binding affinity to human DNA in blood assessed as quenching constant by fluorescence emission spectrum analysis; assay type: tissue-based
[30] = molecular target: T1, Albumin; assay: Binding affinity to bovine serum albumin assessed as hydrogen bonding interaction by measuring change in enthalpy at 298K by thermodynamic based analysis; assay type: ADME, cell-free; details: cattle
[31] = tested on: Calf thymus DNA; assay: Binding affinity to calf thymus DNA assessed as DNA intercalation by measuring increase in intensity of CD band at 281 nm at 1 uM by CD spectroscopy; assay type: nucleic-acid assay; details: Bos taurus
[32] = tested on: Calf thymus DNA; assay: Binding affinity to calf thymus DNA assessed as bimolecular quenching constant by ethidium bromide competitive displacement assay; assay type: nucleic-acid assay; details: Bos taurus
[33] = tested on: Calf thymus DNA; assay: Binding affinity to calf thymus DNA assessed as DNA intercalation by measuring decrease in intensity of CD band at 250 nm at 1 uM by CD spectroscopy; assay type: nucleic-acid assay; details: Bos taurus
[34] = molecular target: T1, Albumin; assay: Binding affinity to bovine serum albumin assessed as spontaneous interaction by measuring change in gibbs free energy at 308K by thermodynamic based analysis; assay type: ADME, cell-free; details: cattle
[35] = tested on: A549; assay: Cytotoxicity against human A549/ATCC assessed as reduction in cell viability at 1 uM after 48 hrs by MTT assay; assay type: functional
[36] = tested on: A549; assay: Cytotoxicity against human A549/ATCC assessed as reduction in cell viability at 10 uM after 48 hrs by MTT assay; assay type: functional
[37] = molecular target: T2, Albumin (Homo sapiens, UniProt P02768); assay: Binding affinity to human serum albumin assessed as binding constant by UV-Vis absorption spectroscopy; assay type: ADME, cell-free
T2 sequence (P02768 whole entry): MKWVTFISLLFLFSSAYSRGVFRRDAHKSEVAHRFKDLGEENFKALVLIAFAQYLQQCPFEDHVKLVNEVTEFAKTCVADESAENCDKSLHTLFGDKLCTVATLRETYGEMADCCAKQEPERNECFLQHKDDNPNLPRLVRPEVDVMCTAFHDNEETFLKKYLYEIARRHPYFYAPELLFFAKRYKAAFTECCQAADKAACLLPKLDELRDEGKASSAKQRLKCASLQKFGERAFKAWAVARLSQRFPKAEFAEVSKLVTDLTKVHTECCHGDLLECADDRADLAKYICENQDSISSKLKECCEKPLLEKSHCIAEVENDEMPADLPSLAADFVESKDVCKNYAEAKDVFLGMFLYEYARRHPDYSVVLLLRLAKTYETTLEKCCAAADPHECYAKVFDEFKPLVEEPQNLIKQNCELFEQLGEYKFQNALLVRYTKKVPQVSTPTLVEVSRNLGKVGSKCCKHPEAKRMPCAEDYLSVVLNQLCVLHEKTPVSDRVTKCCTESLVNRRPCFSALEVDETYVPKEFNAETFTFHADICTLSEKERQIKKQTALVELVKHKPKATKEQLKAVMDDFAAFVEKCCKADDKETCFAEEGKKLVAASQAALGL

[38] = tested on: SNB-19; assay: Antitumor activity against human SNB-19 cells assessed as cell growth inhibition at 10 uM incubated for 48 hrs by sulforhodamine B assay; assay type: functional; details: read-out: GI
[39] = molecular target: T2, Albumin; assay: Binding affinity to human serum albumin assessed as quenching constant by fluorescence emission spectroscopy; assay type: ADME, cell-free
[40] = tested on: HCC 2998; assay: Antitumor activity against human HCC2998 cells assessed as cell growth inhibition at 10 uM incubated for 48 hrs by sulforhodamine B assay; assay type: functional; details: read-out: GI
[41] = tested on: HL-60(TB); assay: Antitumor activity against human HL-60(TB) cells assessed as cell growth inhibition at 10 uM incubated for 48 hrs by sulforhodamine B assay; assay type: functional; details: read-out: GI
[42] = tested on: 786-0; assay: Antitumor activity against human 786-0 cells assessed as cell growth inhibition at 10 uM incubated for 48 hrs by sulforhodamine B assay; assay type: functional; details: read-out: GI
[43] = molecular target: T1, Albumin; assay: Binding affinity to bovine serum albumin assessed as decrease in fluorescence emission intensity at 350 nm at 0-12 uM by fluorescence emission spectrum analysis; assay type: ADME, cell-free; details: cattle, 0.35 µM

Question: With `O=C1NC(=O)/C(=C/c2ccc(-c3nc4c5ccccc5c5ccccc5c4[nH]3)cc2)S1` as the compound, how does the inhibition of growth at 10 µM [1] read?
Answer: The inhibition of growth at 10 µM was 19.1%.

Question: What about the deltaG [2] of the same compound?
Answer: Its deltaG is -9 kcal/mol.

Question: What about the Activity [3] of the same compound?
Answer: The Activity was “Active”.

Question: And the inhibition of growth at 10 µM [4]?
Answer: Its inhibition of growth at 10 µM is 30.3%.

Question: What about the KSV [5] of the same compound?
Answer: Its KSV is 8.42 10^5/M.

Question: And the inhibition of growth at 10 µM [6]?
Answer: The inhibition of growth at 10 µM was 47.9%.

Question: What about the inhibition of growth at 10 µM [7] of the same compound?
Answer: The inhibition of growth at 10 µM was 24%.

Question: And the Activity [8]?
Answer: Its Activity is “Active”.

Question: What about the Kq [9] of the same compound?
Answer: Its Kq is 8.15 10^13/M/sec.

Question: What about the IC50 [10] of the same compound?
Answer: The IC50 was 1700 nM.

Question: And the inhibition of growth at 10 µM [11]?
Answer: Its inhibition of growth at 10 µM is under 10%.

Question: And the inhibition of growth at 10 µM [12]?
Answer: The inhibition of growth at 10 µM was 46.1%.

Question: What about the Kq [13] of the same compound?
Answer: Its Kq is 8.42 10^13/M/sec.

Question: What about the ΔTm [14] of the same compound?
Answer: Its ΔTm is 7.1 °C.

Question: What about the Kb [15] of the same compound?
Answer: The Kb was 2.95 10^4/M.

Question: And the inhibition of growth at 10 µM [16]?
Answer: Its inhibition of growth at 10 µM is under 10%.

Question: What about the inhibition of growth at 10 µM [17] of the same compound?
Answer: The inhibition of growth at 10 µM was 25.5%.

Question: What about the Kb [18] of the same compound?
Answer: The Kb was 5.24 10^4/M.

Question: And the inhibition of growth at 10 µM [19]?
Answer: The inhibition of growth at 10 µM was under 10%.

Question: And the inhibition of growth at 10 µM [20]?
Answer: Its inhibition of growth at 10 µM is 51.7%.

Question: What about the inhibition of growth at 10 µM [21] of the same compound?
Answer: Its inhibition of growth at 10 µM is 29%.

Question: And the inhibition of growth at 10 µM [22]?
Answer: The inhibition of growth at 10 µM was 65.2%.

Question: What about the inhibition of growth at 10 µM [23] of the same compound?
Answer: The inhibition of growth at 10 µM was 30.3%.

Question: And the Activity [24]?
Answer: Its Activity is 42%.

Question: What about the inhibition of growth at 10 µM [25] of the same compound?
Answer: Its inhibition of growth at 10 µM is 93%.

Question: And the inhibition of growth at 10 µM [26]?
Answer: Its inhibition of growth at 10 µM is 15.6%.

Question: And the inhibition of growth at 10 µM [27]?
Answer: The inhibition of growth at 10 µM was 11.5%.

Question: And the Kb [28]?
Answer: The Kb was 4.06 10^6/M.

Question: What about the Kq [29] of the same compound?
Answer: The Kq was 3.46 10^11/M/s.

Question: What about the deltaH [30] of the same compound?
Answer: Its deltaH is -2.92 kcal/mol.

Question: What about the Activity [31] of the same compound?
Answer: The Activity was “Active”.

Question: What about the Kq [32] of the same compound?
Answer: The Kq was 6.53 10^12/M/s.

Question: What about the Activity [33] of the same compound?
Answer: The Activity was “Active”.

Question: What about the deltaG [34] of the same compound?
Answer: Its deltaG is -9.21 kcal/mol.

Question: What about the Activity [35] of the same compound?
Answer: Its Activity is 75%.

Question: What about the Activity [36] of the same compound?
Answer: Its Activity is 78%.

Question: And the Kb [37]?
Answer: Its Kb is 9.35 10^4/M.

Question: And the inhibition of growth at 10 µM [38]?
Answer: Its inhibition of growth at 10 µM is 18.1%.

Question: And the Kq [39]?
Answer: The Kq was 3.01 10^14/M/s.

Question: And the inhibition of growth at 10 µM [40]?
Answer: Its inhibition of growth at 10 µM is under 10%.

Question: And the inhibition of growth at 10 µM [41]?
Answer: The inhibition of growth at 10 µM was 57.7%.

Question: And the inhibition of growth at 10 µM [42]?
Answer: Its inhibition of growth at 10 µM is 48%.

Question: What about the Activity [43] of the same compound?
Answer: The Activity was “Active”.
